Test results published in patent US11603377B2, “MTORC1 modulators and uses thereof” (Aeovian Pharmaceuticals, Inc., priority 2020, dated 2023).

What was measured:
FKBP12 = FKBP12 (Homo sapiens (Human), UniProt P62942); assay: SPR assay to determine binding affinity to FKBP12 (direct binding); settings: immobilized biotinylated avi-FKBP12
[1] = target: FKBP51 / FRB ternary complex (Homo sapiens (Human), UniProt P42345+Q13451); assay: SPR assay to characterize ternary complex formation with FKBP51 (FRB binding to rapalog-saturated FKBP51); settings: FRB dilutions with 100 nM rapalog on immobilized FKBP51
In short: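 SPR with biotinylated avi-FKBP51 on streptavidin chip (~200 RU); FRB (0.00011-20 μM, 3-fold series) injected with 100 nM rapalog, A-B-A mode keeping FKBP saturated with rapalog.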

mTORC2 = mTORC2 (Homo sapiens (Human), UniProt P42345+P62942); assay: mTORC2 inhibition, AlphaLISA of Phospho-AKT (pAKT pS473) in PC3 cells; format: cell-based
mTORC1 = mTORC1 (Homo sapiens (Human), UniProt P42345+P62942); assay: mTORC1 inhibition, AlphaLISA of Phospho-p70 S6 kinase (p70S6K pT389) in PC-3 cells; format: cell-based; settings: inhibition of p70S6K pT389 levels
[2] = target: FKBP12 / FRB ternary complex (Homo sapiens (Human), UniProt P42345+P62942); assay: SPR assay to characterize ternary complex formation with FKBP12 (FRB binding to rapalog-saturated FKBP12); settings: FRB dilutions with 100 nM rapalog on immobilized FKBP12
In short: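 Biotinylated avi-FKBP12 immobilized (~100 RU) on streptavidin chip; A-B-A injections kept FKBP12 saturated with 100 nM rapalog while FRB (0.00011–20 μM, 3-fold, 12 points) was injected 120 s.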

FKBP51 = FKBP51 (Homo sapiens (Human), UniProt Q13451); assay: SPR assay to determine binding affinity to FKBP51 (direct binding); settings: immobilized biotinylated avi-FKBP51
Sequence of FKBP51 (Q13451 whole entry): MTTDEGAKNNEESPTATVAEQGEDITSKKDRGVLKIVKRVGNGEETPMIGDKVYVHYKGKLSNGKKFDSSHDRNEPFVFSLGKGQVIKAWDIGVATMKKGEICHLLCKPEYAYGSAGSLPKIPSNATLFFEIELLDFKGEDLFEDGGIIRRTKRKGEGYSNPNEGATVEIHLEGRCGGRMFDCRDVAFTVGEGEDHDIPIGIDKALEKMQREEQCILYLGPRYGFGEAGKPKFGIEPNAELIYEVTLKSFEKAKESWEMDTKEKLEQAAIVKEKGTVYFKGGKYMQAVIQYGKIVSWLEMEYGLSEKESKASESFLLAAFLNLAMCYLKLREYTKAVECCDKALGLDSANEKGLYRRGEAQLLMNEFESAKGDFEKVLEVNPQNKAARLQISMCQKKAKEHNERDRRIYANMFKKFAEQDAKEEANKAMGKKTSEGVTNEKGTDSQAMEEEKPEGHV
In short: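 Biotinylated avi-FKBP51 captured on streptavidin chip to about 2000 RU. Compounds injected at 0.5-1000 nM (8 points, 3-fold) for 120 s contact and 3600 s dissociation in 50 mM HEPES pH 7.5, 150 mM NaCl, 2 mM MgCl2, 1 mM DTT, 0.05% Tween-20, 1% DMSO.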

Sequence of FKBP12 (P62942 whole entry): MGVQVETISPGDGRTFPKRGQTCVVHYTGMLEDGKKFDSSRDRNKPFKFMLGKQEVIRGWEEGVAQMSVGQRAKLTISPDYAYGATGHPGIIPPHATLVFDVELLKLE

SMILES	Kd (FKBP12)	Kd [1]	mTORC2 % inhibition at 1 uM (mTORC2)	IC50 (mTORC1)	Kd [2]	Kd (FKBP51)
CO[C@@H]1C[C@H](C[C@@H](C)[C@@H]2CC(=O)[C@H](C)/C=C(\C)[C@@H](O)[C@@H](OC)C(=O)[C@H](C)C[C@H](C)/C=C/C=C/C=C(\C)[C@@H](OCCC3CCS(=O)(=O)C3)C[C@@H]3CC[C@@H](C)[C@@](O)(O3)C(=O)C(=O)N3CCCC[C@H]3C(=O)O2)CC[C@H]1O (stereo partly drawn) [Compound 27]	< 0.0003 µM	> 0.8 µM	A (A ≤20% inhibition at 1 micro Molar (uM))	> 0.0008 µM	> 0.8 µM	0.01 to 0.1 µM
CO[C@@H]1C[C@H](C[C@@H](C)[C@@H]2CC(=O)[C@H](C)/C=C(\C)[C@@H](O)[C@@H](OC)C(=O)[C@H](C)C[C@H](C)/C=C/C=C/C=C(\C)[C@@H](OCCC3CCO3)C[C@@H]3CC[C@@H](C)[C@@](O)(O3)C(=O)C(=O)N3CCCC[C@H]3C(=O)O2)CC[C@H]1O (stereo partly drawn) [Compound 28]	< 0.0003 µM	> 0.8 µM	B (B>20% and less than 40% inhibition at 1 uM)	0.0001 to 0.0008 µM	> 0.8 µM	0.01 to 0.1 µM
CO[C@@H]1C[C@H](C[C@@H](C)[C@@H]2CC(=O)[C@H](C)/C=C(\C)[C@@H](O)[C@@H](OC)C(=O)[C@H](C)C[C@H](C)/C=C/C=C/C=C(\C)[C@@H](OCC3CCS(=O)(=O)C3)C[C@@H]3CC[C@@H](C)[C@@](O)(O3)C(=O)C(=O)N3CCCC[C@H]3C(=O)O2)CC[C@H]1O (stereo partly drawn) [Compound 30]	< 0.0003 µM	> 0.8 µM	A (A ≤20% inhibition at 1 micro Molar (uM))	> 0.0008 µM	> 0.8 µM	0.01 to 0.1 µM
CO[C@@H]1C[C@H](C[C@@H](C)[C@@H]2CC(=O)[C@H](C)/C=C(\C)[C@@H](O)[C@@H](OC)C(=O)[C@H](C)C[C@H](C)/C=C/C=C/C=C(\C)[C@@H](OCC3CCOC3)C[C@@H]3CC[C@@H](C)[C@@](O)(O3)C(=O)C(=O)N3CCCC[C@H]3C(=O)O2)CC[C@H]1O (stereo partly drawn) [Compound 31]	< 0.0003 µM	> 0.8 µM	A (A ≤20% inhibition at 1 micro Molar (uM))	0.0001 to 0.0008 µM	> 0.8 µM	0.01 to 0.1 µM
CO[C@@H]1C[C@H](C[C@@H](C)[C@@H]2CC(=O)[C@H](C)/C=C(\C)[C@@H](O)[C@@H](OC)C(=O)[C@H](C)C[C@H](C)/C=C/C=C/C=C(\C)[C@@H](OCCC3CCOC3)C[C@@H]3CC[C@@H](C)[C@@](O)(O3)C(=O)C(=O)N3CCCC[C@H]3C(=O)O2)CC[C@H]1O (stereo partly drawn) [Compound 32]	< 0.0003 µM	> 0.8 µM	A (A ≤20% inhibition at 1 micro Molar (uM))	0.0001 to 0.0008 µM	0.3 to 0.8 µM	0.01 to 0.1 µM
COC1CC(CC(C)C2CC(=O)C(C)C=C(C)C(O)C(OC)C(=O)C(C)CC(C)C=CC=CC=C(C)C(OC3CCOCC3)CC3CCC(C)C(O)(O3)C(=O)C(=O)N3CCCCC3C(=O)O2)CCC1O (stereo not drawn) [Compound 33]	< 0.0003 µM	> 0.8 µM	A (A ≤20% inhibition at 1 micro Molar (uM))	> 0.0008 µM	> 0.8 µM	0.01 to 0.1 µM
CO[C@@H]1C[C@H](C[C@@H](C)[C@@H]2CC(=O)[C@H](C)/C=C(\C)[C@@H](O)[C@@H](OC)C(=O)[C@H](C)C[C@H](C)/C=C/C=C/C=C(\C)[C@@H](OCCC3COC3)C[C@@H]3CC[C@@H](C)[C@@](O)(O3)C(=O)C(=O)N3CCCC[C@H]3C(=O)O2)CC[C@H]1O [Compound 34]	< 0.0003 µM	> 0.8 µM	A (A ≤20% inhibition at 1 micro Molar (uM))	> 0.0008 µM	> 0.8 µM	0.01 to 0.1 µM
COC1CC(CC(C)C2CC(=O)C(C)C=C(C)C(O)C(OC)C(=O)C(C)CC(C)C=CC=CC=C(C)C(OC3CCOC3)CC3CCC(C)C(O)(O3)C(=O)C(=O)N3CCCCC3C(=O)O2)CCC1O (stereo not drawn) [Compound 35]	< 0.0003 µM	> 0.8 µM	A (A ≤20% inhibition at 1 micro Molar (uM))	> 0.0008 µM	> 0.8 µM	< 0.01 µM
